# How the values were obtained:
# recombinant kallikrein-5 = molecular target: T1, recombinant kallikrein-5 (Homo sapiens, UniProt Q9Y337); assay: Kallikrein-5 enzymatic activity, fluorescent substrate Boc-Val-Pro-Arg-AMC; type: biochemical; conditions: 10 and 20 ppm; FIG. 2
# T1 construct: purchased R&D Systems, USA
# T1 sequence (Q9Y337 23-293): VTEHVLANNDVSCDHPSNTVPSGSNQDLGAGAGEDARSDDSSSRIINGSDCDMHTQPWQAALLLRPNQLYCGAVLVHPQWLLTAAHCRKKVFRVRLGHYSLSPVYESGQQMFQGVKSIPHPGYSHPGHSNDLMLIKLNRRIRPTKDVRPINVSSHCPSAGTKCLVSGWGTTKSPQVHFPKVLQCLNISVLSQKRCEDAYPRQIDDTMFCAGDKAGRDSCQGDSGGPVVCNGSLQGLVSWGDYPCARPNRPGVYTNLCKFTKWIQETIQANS
# Experimental: To measure the enzymatic activity of kallikrein-5 which is a trypsin-like proteolytic enzyme present in skin keratinocytes, recombinant kallikrein-5 (R&D Systems, USA) was allowed to react with the fluorescently labeled substrate Boc-Val-Pro-Arg-AMC (R&D Systems, USA), and the enzymatic activity was measured. 50 μl of 2 μg/ml recombinant kallikrein-5 was treated with different concentrations (10 and 20 ppm) of isookanin and then allowed to react at room temperature for 10 minutes, and then 50 μl of 800 μM kallikrein-5 substrate was added thereto, followed by measurement in kinetic mode at 380 nm/480 nm fluorescence for 5 minutes. As a positive control, the trypsin inhibitor Leupeptin (Sigma Aldrich, USA) was used, and as a negative control, non-treated recombinant kallikrein was used. For evaluation of the degree of activity, based on the value obtained by subtracting the lowest fluorescence value from the highest fluorescence value among the measurement values under each condition, the fluorescence value of the group treated with isookanin was compared with the fluorescence value of the group not treated with isookanin, and the results are shown in FIG. 2.
# COX-2 = molecular target: T2, COX-2 (Homo sapiens, UniProt P35354); assay: COX-2 enzyme activity, cyclooxygenase (COX) activity assay kit; type: biochemical; conditions: 5, 10 and 20 ppm; FIG. 5
# T2 construct: BioVision
# T2 sequence (P35354 18-604): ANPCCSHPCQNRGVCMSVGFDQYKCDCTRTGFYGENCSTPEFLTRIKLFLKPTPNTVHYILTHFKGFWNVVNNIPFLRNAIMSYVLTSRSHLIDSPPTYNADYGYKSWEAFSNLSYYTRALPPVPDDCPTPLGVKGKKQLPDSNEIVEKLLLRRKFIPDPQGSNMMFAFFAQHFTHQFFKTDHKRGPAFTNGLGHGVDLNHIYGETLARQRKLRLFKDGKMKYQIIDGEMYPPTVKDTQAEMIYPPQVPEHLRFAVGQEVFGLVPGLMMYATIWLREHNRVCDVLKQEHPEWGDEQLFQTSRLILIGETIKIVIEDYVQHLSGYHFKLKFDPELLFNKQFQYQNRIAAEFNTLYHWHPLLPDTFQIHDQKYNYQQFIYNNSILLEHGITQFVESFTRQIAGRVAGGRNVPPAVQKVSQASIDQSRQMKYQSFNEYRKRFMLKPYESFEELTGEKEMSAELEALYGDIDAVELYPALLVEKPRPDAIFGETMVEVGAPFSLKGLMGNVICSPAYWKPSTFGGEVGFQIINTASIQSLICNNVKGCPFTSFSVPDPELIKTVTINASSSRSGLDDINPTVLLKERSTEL
# Experimental: COX-2 enzyme inhibitory activity was measured using a cyclooxygenase (COX) activity assay kit (BioVision). 2 μl of COX probe, 4 μl of diluted COX cofactor, and varying concentrations (5, 10, and 20 ppm) of isookanin were added to the COX assay buffer included in the kit. As a negative control, DMSO was added instead of isookanin, and as a positive control, the COX-2 inhibitor celecoxib was added.
# human skin = assay: Human skin safety, repeated insult patch test (Finn chamber); type: in vivo; conditions: 30 healthy adults
# Experimental: In order to confirm that the isookanin according to the present invention is safe for human skin, a skin safety verification test was performed. To this end, a repeated insult patch test was conducted.
# Nourishing creams containing the isookanin in amounts of 0.1%, 0.5% and 1%, respectively, were prepared. Specifically, a water phase containing purified water, triethanolamine and propylene glycol was dissolved by heating to 70° C. and then emulsified by adding a solution obtained by dissolving beeswax, liquid paraffin, an oil component, an emulsifier and a preservative by heating to 70° C. After completion of emulsification, the solution was cooled to 45° C., and the isookanin was added thereto in amounts of 0.1%, 0.5% and 1% and dispersed therein, followed by cooling to 30° C. As the content of the isookanin was increased from 0.1% to 0.5% and 1%, the content of liquid paraffin was decreased from 9.91% to 9.51% and 9.01%, respectively, thereby preparing nourishing creams.
# Using the nourishing creams prepared as described above, a repeated insult patch test was conducted on the upper arm areas of 30 healthy adults every other day for a total of 9 times for 24 hours per time to determine whether the isookanin irritated the skin.
# The patch test was performed using a Finn chamber (Epitest Ltd., Finland). 15 μl of each of the external skin preparations was dropped into the chamber, and then the patch test was performed.
# [Equation 1] Average degree of reaction=[[(reaction index×degree of reaction)/(total number of subjects×highest score (4)]×100]÷number of tests (9)
# In the degree of reaction, ± represents a score of 1, + represents a score of 2, and ++ represents a score of 4. When the average degree of reaction is less than 3, the corresponding composition is determined to be safe.
structure (smiles),measurement,setting,value
O=C1C[C@@H](c2ccc(O)c(O)c2)Oc2c1ccc(O)c2O [isookanin],inhibition of kallikrein-5 activity,recombinant kallikrein-5,inhibitory effect on kallikrein-5 activity in a concentration-dependent manner
same,inhibition of COX-2 enzyme activity,COX-2,inhibiting the activity of COX-2 enzyme in a concentration-dependent manner
same,Average degree of reaction,"human skin; upper arm, 24 hours per patch, Equation 1, less than 3 is determined to be safe",≤ 3
same,skin safety conclusion of the repeated insult patch test,"human skin; nourishing creams with 0.1%, 0.5% and 1% isookanin",safe substance that shows no remarkable cumulative irritation aspect

# Source: patent US12502374B2, “Composition for preventing, alleviating, or treating inflammatory disease containing isookanin or salt thereof as active ingredient” (BioSpectrum, Inc., priority 2020, dated 2025)
